Laboratory results: patent US20250362302A1, “INTRACELLULAR LIGATION OF PHOTOCATALYSTS FOR PHOTO-RESPONSIVE, PROBE-MEDIATED PROTEIN LABELING” (Seed Therapeutics US, Inc., priority 2022, published 2025)

Tests used:
SOS1 = test: Photo-responsive labeling within live cells, streptavidin bead immunoprecipitation of biotinylated proteins, Western blot with anti-SOS1 antibody; type: cell-based, human; conditions: KRAS (G12DHaloTag/+) protein reporter cells with photocatalyst, labeling partner and irradiation; no distinct band in control cells HD-103-037 and HD-PAR-006
Description: (§1) Initially, reagents were prepared. An Ir—Cl photocatalyst master stock solution was prepared at 10 mM in 100% DMSO. The specific Ir—Cl photocatalyst used in this example was the photocatalyst prepared in accordance with Example 2. To create a working solution for the Ir—Cl catalyst, a portion of the Ir—Cl catalyst master stock solution was diluted in 1×DPBS, such that the final Ir—Cl catalyst concentration was 10 μM and the DMSO concentration was 0.1%. A labeling agent master stock was also prepared, having a 25 mM concentration in 100% DMSO. The particular labeling agent used was the one prepared in accordance with Example 1. To create a working solution for the labeling agent, a portion of the labeling agent master stock solution was diluted in 1×DPBS, such that the final concentration of labeling agent was 250 μM and the DMSO concentration was 1%.
(§2) A human KRAS (G12DHaloTag®/+) cell line (HD-103-021, Horizon Discovery) with protein reporter was grown to 80-90% confluence. Cells were harvested and pelleted down by centrifuging at 1000 g, for 5 minutes at 4° C. (Eppendorf Centrifuge 5427 R). Supernatant was discarded and the cell pellet was resuspended in ice cold 1×DPBS (Gibco™) and mixed. Subsequently, cells were again pelleted down by centrifuging at 1000 g, for 5 minutes at 4° C. Supernatant was discarded and fresh ice cold 1×DPBS was added to the pellet and mixed. […]

PI3 Kinase P110α = test: Photo-responsive labeling within live cells, HALO-tag immunoprecipitation, Western blot with Anti-PI3k antibody; type: cell-based, human; conditions: labeling agent 250 μM, photocatalyst 10 μM, irradiation 450 nm 10 minutes, cell line 021
Description: as §1, §2

Halotag-KRAS(G12D) = test: Halotag chaser assay (TAMRA-Cl) for Ir-photocatalyst cell permeability, fluorescent Western blot; type: cell-based, human
Description: Photo-responsive labeling within cells was carried out as described similar to the procedure as described in Example 11. An Ir-photocatalyst master stock solution was prepared at 10 mM or 5 mM in 100% DMSO. KRAS (G12DHaloTag®/+) cells (HD-103-021, Horizon Discovery) were grown to 90% confluency in 6-well cell culture dishes using phenol-free RPMI1640 media (Gibco™). […] The cells were incubated for 1 or 2 hours at 37° C. The media was then aspirated and cells were gently washed twice with 2 mL fresh RPMI 1640, with an incubation of 10 minutes per wash at 37° C. TAMRA-Cl fluorescent dye (Promega, 68251) was diluted with OptiMEM to a 5 μM working solution. 0.8 mL of the working dye solution was added to the cells, and allowed to incubate for 15 minutes at 37° C. The cells were gently washed twice with 2 mL cold DPBS, aspirated, then added 200 μL RIPA supplemented with protease-phosphatase inhibitor (Halt™ Protease and Phosphatase Inhibitor Cocktail (100×)) and mixed briefly. The cell lysate was collected into 1.5 mL tubes. The cell lysate was sonicated using a probe-sonicator (SONICS vibra-cell Fisher Scientific) with 15 s on, 10 s off, at 30% amplitude for 3 cycles. The cell lysate was centrifuged at 18,000 g at 4° C. for 20 minutes. […] Cell lysates were processed and analyzed by fluorescent Western blot with anti-TAMRA and anti-β-Actin (for normalization) antibodies. […]

[1] = system: bovine serum albumin (BSA); test: Catalyst-dependent biotinylation of bovine serum albumin, fluorescent Western blot with anti-biotin antibody; type: biochemical; conditions: labeling reagent WH8 100 uM, BSA 10 uM, catalyst 5 μM and 10 μM, 5 minutes irradiation at 450 nm; no band without irradiation
Description: Photocatalyst was combined with diazirine labeling compounds 8 or 9 and BSA in DPBS to yield reaction mixtures with 200 uL total solution volume. BSA concentration was 10 uM; diazirine labeling compound was fixed as 100 uM; the final catalyst concentration was set as 5 uM and 10 uM respectively. These samples were then either placed in the dark or irradiated with visible (450 nm) light in a M2 photoreactor for 5 minutes at 100% intensity. 60 uL samples were then removed, combined with 20 μL of 4× reducing SDS-Laemmli buffer (with 1:10 1 M DTT), mixed and heated at 95° C. for 5 minutes. 15 μL of each sample was then analyzed by Fluorescent western blot.
The sample was loaded into a 4-20% Tris-Glycine gel (Bio-Rad). Gel was run at 120V for 80 minutes or until the dye front reaches the end of the gel. Proteins were transferred from gel to nitrocellulose membrane using the iBlot 2 semi-dry Transfer apparatus. The membrane was used to detect total protein for normalization which follow the manufacturer's manual (Revert™ 700 Total Protein Stain, LI-COR). After that, the membrane rinsed once with TBST and blocked with h Intercept® Blocking Buffer for 1 hour at RT with gentle shaking. After blocking, membrane was washed with TBST and requisite antibody was added (1:1000) and kept for overnight at 4° C. on a shaker. […]

ikaros (IKZF1) = test: Western blot of IKZF1 in lysates of HALO.CRBN Jurkat cells exposed to pomalidomide or lenalidomide; type: cell-based; conditions: lanes, HALO.CRBN Jurkat cell lysates, compared with control or 1 μM pomalidomide lanes
Description: A stable cell line, using Jurkat cells, was created where native cereblon (CRBN) was knocked out and a fusion of HaloTag protein and CRBN was expressed (referred to herein as “the HALO.CRBN Jurkat cell line”). […] The gel was stained using mouse anti-IKZF1 antibody. The dilution was 1:1000 and the exposure was about 10 seconds.

| Compound | SOS1 band after streptavidin IP (FIG. 5F) (SOS1) | PI3 Kinase P110α band after HALO-tag IP (FIG. 4A) (PI3 Kinase P110α) | binding to the Halotag (Halo-chaser assay, anti-TAMRA) (Halotag-KRAS(G12D); FIG. 21A, 1 hour treatment, 5 μM and 10 μM photocatalyst, KRAS (G12DHaloTag/+) cells, compared to DMSO control) | binding to the Halotag (Halo-chaser assay, anti-TAMRA) (Halotag-KRAS(G12D); FIG. 21B, 5 μM photocatalyst) | biotinylation of BSA (anti-biotin fluorescent Western blot) [1] | IKZF1 level in Western blot (anti-IKZF1) (ikaros (IKZF1)) |
| --- | --- | --- | --- | --- | --- | --- |
| Cc1ccnc(-c2cc(CCC(=O)NCCOCCOCCOCCOCCCCCCCl)ccn2)c1.Fc1cc(F)c(-c2ccc(C(F)(F)F)cn2)[c]([Ir+][c]2cc(F)cc(F)c2-c2ccc(C(F)(F)F)cn2)c1 [IR1] | distinct SOS1 band observed | distinct band of PI3 Kinase P110α | a little less binding to the Halo tag | majority binding | – | – |
| [N-]=[N+]=Nc1ccc(C(=O)NCCOCCOCCOCCNC(=O)CCCC[C@@H]2SC[C@@H]3NC(=O)N[C@@H]32)cc1 [WH8, 4-azido-N-(13-oxo-17-((3aS,4S,6aR)-2-oxohexahydro-1H-thieno[3,4-d]imidazol-4-yl)-3,6,9-trioxa-12-azaheptadecyl)benzamide] | distinct SOS1 band observed | distinct band of PI3 Kinase P110α | – | – | biotinylated BSA bands | – |
| Nc1cccc2c1C(=O)N(C1CCC(=O)NC1=O)C2=O (centres unmarked) [pomalidomide] | – | – | – | – | – | observably less IKZF1 |
